Reference: patent EP1101492A1, “NOVEL REMEDIES FOR ALLERGIC DISEASES” (FUJI YAKUHIN KOGYO KABUSHIKI KAISHA, priority 1998, dated 2000)

Assays:
[1] = tested on: mouse experimental atopic dermatitis models; experiment: Auricle edema in experimental atopic dermatitis model (anti-DNP IgE sensitization, DNFB elicitation); assay type: in vivo, Balb/c mice; conditions: 60 µg/ear/dose in ethanol painted on auricles twice a day, 1 hour pre-elicitation, 6 hours, 1 to 6 days post-elicitation; for % Inhibition vLPR: 7 or 8 days post-elicitation; for % Inhibition IPR: 1 hour post-elicitation; for % Inhibition LPR: 1 day post-elicitation
Protocol: Intravenous injection of an anti-2,4-dinitrophenol (DNP) antibody (anti-DNP Ab, monoclonal IgE Ab; its antibody titer was 1 : 512 to 1 : 1024 by a rat heterologous passive cutaneous anaphylaxis reaction using a Wister rat) into a tail vein of female Balb/c mice (7-week old, body weight: 17 to 20 g, purchased from JAPAN SLC, Inc.) at a dose of […] per animal raised passive sensitization. Twenty four hours post-sensitization, 0.1% 2,4-dinitrofluorobenzene (DNFB; Nacalai Tesque, Inc.) in ethanol was painted onto both sides of a pair of mouse auricles at a dose of 10µL per each side for elicitation.
Fresh unsensitized mice were painted with 0.1% DNFB in ethanol onto their ear in the same manner as aforementioned and served as a control group. Not only immediately prior to elicitation but also 1 hour, 5 hours, daily between Days 1 and 14, and on Day 16 post-elicitation, ear thickness was measured using a dial thickness gauge (Peacock Co.). Each degree of auricle edemas was calculated: Auricular Edema (µm)=(Ear Thickness Post-Elicitation, µm) - (Ear Thickness immediately prior to Elicitation, µm) [formula]
Balb/c mice were passively sensitized with anti-DNP IgE Ab in the same manner as in Example 1. Twenty four hours later, 0.1% DNFB in ethanol was painted onto both sides of a pair of mouse auricles at a dose of 10 µL per each side for elicitation.
Immediately prior to elicitation, 1 hour and on Day 1 post-elicitation, auricle thickness was measured in the same manner as in Example 1. Each therapeutic efficacy is recorded as a percent inhibition wherein the "auricle edema (untreated group)" is used as a control. Auricle Edema Inhibition (%) = [ 1 -(Auricle Edema (Treated Group))/(Auricle Edema (Untreated Group))] × 100 (%) [formula]
Immediately prior to elicitation, and on Day 7 post-elicitation, auricle thickness was similarly measured. Each therapeutic efficacy is recorded as a percent inhibition wherein the auricle edema in the untreated group is used as a control.
Immediately prior to elicitation, and on Day 7 post-elicitation, auricle thickness was similarly measured. Each therapeutic efficacy is recorded as a percent inhibition wherein the auricle edema (untreated group) is used as a control.
Immediately prior to elicitation, at 1 and 4 hours and on Days 1, 3 and 7 post-elicitation, auricle thickness was similarly measured. From each auricle edema (µm) based on the auricle thickness immediately prior to elicitation, especially a prophylactically therapeutic efficacy of the test compound was evaluated.
Immediately prior to elicitation, at 0.5, 1 and 4 hours and on Days 1, 3 and 7 post-elicitation, auricle thickness was similarly measured. Each amount of auricle edemas was calculated (average± standard deviation).

allergic peritonitis = experiment: Allergic peritonitis induced with ovalbumin (peritoneal exudate cells); assay type: in vivo, Balb/c mice; conditions: ovalbumin
Protocol: Twenty four hours after induction, mice were sacrificed under ether […] and each penitoneal cavity was lavaged twice or thrice with a washout medium (total volume: 5 mL, physiological saline containing 10 units/mL of heparin). Peritoneal exudate cells (PEC) were harvested in a siliconized glass tube. The retrieved washout medium was measured for its yield (mL) and the number of exudate cells therein by using Turk solution and counting on a haemocytometer and a total number of PEC was calculated. An aliquot thereof (an extent of approximately 20,000 cells of PEC) was taken. Specimens for staining were prepared using Cytospin 3 (CHANDON), and PEC was stained with Dif-Quick solution (International Reagents Corporation). After staining, PEC was subjected to fractional counts under a microscope with classification into eosinophils, neutrophils, lymphocytes/macrophages and basophils based on their form and stain nature (more than 500 PEC per specimen were randomly counted). […] After counting, intraperitoneal exudation inhibition rates were calculated by the following formula and expressed as the therapeutic efficacies: Inhibition Rate (%) =[1 -((PEC in Sensitized/Drug-Treated Mouse) - (PEC in Unsensitized/Saline-Treated Mouse))/((PEC in Sensitized/Saline-Treated Mouse) - (PEC in Unsensitized/Saline-Treated Mouse))]× 100 [formula]
A physiological saline solution containing ovalbumin (0.25 mg/mL) and an aluminum hydroxide gel (4 mg/mL) was administered subcutaneously to male Balb/c mice (7 weeks old, 20 to 23 g, purchased from JAPAN SLC, Inc.) twice at one week interval at a single dose of 0.4 mL for sensitization. On Day 14 after the initial sensitization, an antigen solution for induction (2.5 µg/mL) was administered intraperitoneally to each animal at a dose of 0.4 mL to raise allergic peritonitis. Compound No. 130 (30 mg/kg) or a negative control solvent, physiological saline (10 mL/kg), was administered intraperitoneally to each animal 5 minutes prior to induction, 3 and 6 hours post-induction.
Similarly to Example 24, the peritoneal cavities were lavaged to retrieve PEC. The drained liquids were measured for their yield and total PEC number therein. In the same manner as in Example 24, PEC was stained and subjected to fractional counting under a microscope based on their form. […] Similarly to Example 24, basophils and neutrophils were excluded from subjects to be examined. In the same manner as in Example 24, intraperitoneal exudation inhibition rates were calculated and expressed as the therapeutic efficacies.
In the same manner as in Example 25, male Balb/c mice were sensitized with ovalbumin and an aluminum hydroxide gel, and, on Day 14 after the initial sensitization, treated with an antigen solution to raise allergic peritonitis. Compound No. […]
Similarly to Example 24, the peritoneal cavities were lavaged to retrieve PEC 24 hours after induction. The drained liquids were measured for their yield and total PEC number therein.

[2] = tested on: guinea pig experimental bronchial asthma models; experiment: Experimental bronchial asthma model (ovalbumin inhalation): airway resistance and asthmatic death;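 note: female Std:Hartley guinea pigs sensitized by inhaling nebulized ovalbumin once daily for 8 consecutive days, 8 to 11 animals per group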; conditions: test compounds 15 mg/kg s.c. (Compound No. 114: 30 mg/kg), prednisolone 10 mg/kg orally
Protocol: Guinea pigs (female, Std:Hartley, 3 weeks old, 200 to 250 g) were individually housed in a plastic chamber (width, 200 mm; depth, 300 mm; height, 167 mm). Aqueous ovalbumin (10 mg/mL) was administered to the guinea pigs once a day for sensitization by 10 min. inhalation with a nebulizer (5B, Nippon Shoji K.K.: flow rate, 6 L/min.) at a dose of 10 mg/mL during 8 cosecutive days. On Day 7 after the final sensitization, the guinea pigs were housed in a plastic chamber and inhaled using a nebulizer with a solution of ovalbumin (10 mg/mL) in physiological saline for 1 min. for elicitation (Matsumoto, T., et al., The Journal of Pharmacology and Experimental Therapeutics, 269: 1236-1244, 1994). The number of animals employed in the experiment was set to the extent there are at least 6 as individuals escaping asthmatic death. A solution of a test compound (Compound No. 130, 15 mg/kg) in water for injection was administered subcutaneously twice, i.e., 24 hours and 2 hours prior to elicitation. Similarly, the solvent alone was also administered to a negative control group. A suspension of prednisolone (10 mg/kg) in 0.5% aqueous methyl cellulose was administered orally twice, i.e., 24 hours and 2 hours prior to elicitation. Similarly, the solvent alone was also administered to another control group.
The evaluation for efficacies was conducted in terms of airway resistance. For this purpose, an apparatus dedicated to the measurement of airway resistance (K.K. Medical Agent) was employed. Measurement includes setting a guinea pig in a test chamber under a not-anesthetized condition, applying sinusoidal pressure waves of 30 Hz components to a part below the neck of the animal from the back side of the chamber, measuring respiratory waves of 30 Hz components leaking through the mouth (volume of 30 Hz air flow passing through the respiratory tract) in front of the neck, and calculating airway resistance mechanically. Measurement was carried out immediately prior to the first drug treatment (24 hours before elicitation), just prior to elicitation, 10 minutes, 1, 2, 4, 6, and 8 hours post-elicitation.
It was visually observed by a person carrying out said test in terms, of the appearance of cyanosis or suffocative death (asthmatic death) due to respiratory obstruction.
Guinea pigs were sensitized with ovalbumin and asthma was induced on Day 7 after final sensitization in the same manner as in Example 20. The number of animals employed in the experiment was set to the extent there are at least 6 as individuals escaping asthmatic death (8 to 11 animals/group). In the same manner as in Example 20, the animals were measured for airway resistance mechanically and each percent change (%) in airway resistance was calculated (each value just prior to elicitation was set as 100%). Each percent amelioration in airway resistance was calculated from the percent changes in airway resistance according to the following formula: Amelioration in Airway Resistance (%) = 1 -[((Percent Change in Airway Resistance after Drug-Administration) - (Value just prior to Challenge (100)))/((Percent Change in Airway Resistance after Solvent-Administration) - (Value just prior to Challenge (100)))]× 100 [formula]

[3] = tested on: mouse experimental atopic dermatitis models; experiment: Scratching behavior in experimental atopic dermatitis model; assay type: in vivo, mice; conditions: for % Inhibition (scratching behavior) / Scratching Behavior (Times) (Average± Deviation): 0.1% solution in ethanol, 10 µL per side painted 1 hour pre-elicitation; for % Inhibition (scratching behavior): counts for 15 to 30 and 30 to 45 min post-elicitation, vs solvent control; for Scratching Behavior (Times) (Average± Deviation): counts for the 15 to 30 min and 30 to 45 min post-elicitation durations, 3 animals per group, solvent control 209.0 ± 70.4
[4] = 30 mg/kg s.c., lavage 24 hours post-induction
[5] = 24 and 2 hours prior to elicitation, vs solvent control
[6] = 30 mg/kg s.c. 1 hour prior to induction and 3 hours post-induction, lavage 6 hours post-induction

Compound | % Inhibition vLPR [1] [%] | % Inhibition IPR [1] [%] | % Inhibition LPR [1] [%] | Leukocyte exudate inhibition rate (%) (Macrophages)/(Lymphocytes) (allergic peritonitis; [4]) | Leukocyte exudate inhibition rate (%) Eosinophils (allergic peritonitis; [4]) [%] | Leukocyte exudate inhibition rate (%) Total PEC Number (allergic peritonitis; [4]) [%] | % Survival ([2]; asthmatic death within several minutes after elicitation, water for injection 54.5, 0.5% methyl cellulose 66.7) [%] | % Amelioration in Airway Resistance, 1 Hour after Elicitation [2, 5] [%] | % Amelioration in Airway Resistance, 6 Hours after Elicitation [2, 5] [%] | % Amelioration in Airway Resistance, Immediately after Elicitation [2, 5] [%] | % Inhibition (scratching behavior) [3] [%] | Scratching Behavior (Times) (Average± Deviation) [3] | Leukocyte exudate inhibition rate (%) Eosinophils (allergic peritonitis; [6]) [%] | Leukocyte exudate inhibition rate (%) Neutrophils (allergic peritonitis; [6]) [%] | Leukocyte exudate inhibition rate (%) Total PEC Number (allergic peritonitis; [6]) [%] | inhibitory efficacy on scratching in the 20 to 40 min post-elicitation duration ([3]; 0.3% Compound No. 125 vs 0.1% tacrolimus painted on auricles) | efficacy on mouse scratching behavior (FIG. 9) ([3]; 0.3% ethanolic solution, 10 µL per side painted on auricles 5 minutes pre-elicitation, observed 2 hours)
CC(C)C[C@@H](C(=O)N[C@@H](Cc1ccc(CN)cc1)C(=O)O)C(CCCc1ccccc1)C(=O)NO.Cl (mixture of isomers) [Compound No. 114, N^a-[4-(N-Hydroxyamino)-2(R)-isobutyl-3(RS)-(3-phenylpropyl)succinyl]-L-4'-aminomethylphenylalanine · 1 hydrochloride] | 52 | 71 | 62 | 29.0 | 37.5 | 33.4 | 70.0 | 39.4 | 69.4 | 54.0 | 30.3 | 345.7 ± 47.1 | – | – | – | – | –
CNC(=O)[C@H](Cc1ccc(N=C(N)N)cc1)NC(=O)C(CC(C)C)[C@H](CCCc1ccccc1)C(=O)NO.Cl (single isomer, unassigned) [Compound No. 125, N -[4-(N-Hydroxyamino)-2(R or S)-isobutyl-3(S)-(3-phenyltrimethylene)succinyl]-L-4'-guanidophenylalanine-N-methylamide 1 hydrochloride] | 31 | 56 | 58 | 55.1 | 38.9 | 49.6 | – | – | – | – | 40.7 | 124.0 ± 43.6 | 38.4 | 41.4 | 40.9 | higher than that of tacrolimus | apparently inhibits mouse scratching behavior
CNC(=O)[C@H](CCCCN)NC(=O)[C@H](CC(C)C)C(CCCc1ccc(C(=O)OC)cc1)C(=O)NO.Cl (single isomer, unassigned) [Compound No. 129, N-[4-(N-Hydroxyamino)-2(R)-isobutyl-3(R or S)-[3-(p-methoxycarbonylphenyl)propyl)succinyl]-L-lysine N-methylamide 1 hydrochloride] | 35 | 28 | 53 | 37.7 | 30.2 | 35.1 | – | – | – | – | 31.1 | 144.0 ± 48.8 | 39.9 | 125.7 | 109.1 | – | –
CNC(=O)[C@H](Cc1ccc(N=C(N)N)cc1)NC(=O)[C@@H](CC(=O)NO)CC(C)C.O=S(=O)(O)O [Compound No. 122, N-[4-(N-Hydroxyamino)-2(R)-isobutylsuccinyl]-L-4'-guanidophenylalanine-N-methylamide 1 sulfate] | 35 | 31 | 22 | – | – | – | – | – | – | – | 54.1 | 96.0 ± 32.6 | – | 27.1 | 38.6 | – | –
COC(=O)[C@H](Cc1ccc(CN)cc1)NC(=O)[C@H](CC(C)C)[C@H](CCCc1ccccc1)C(=O)NO.Cl [Compound No. 132, N-[4-(N-Hydroxyamino)-2(R)-isobutyl-3(S)-(3-phenylpropyl)succinyl]-L-4'-aminomethylphenylalanine methyl ester 1 hydrochloride] | 46 | 20 | 39 | 34.0 | 24.3 | 31.6 | – | – | – | – | 49.9 | 104.7 ± 30.6 | – | – | – | – | –
